# From patent US20250122193A1, “NOVEL PYRIDOCARBAZOLIUM COMPOUNDS AND MEDICAL USES THEREOF” (MyCural Therapeutics, priority 2021, published 2025)
# Experiments:
# MYC:MAX interaction = MYC:MAX interaction (Homo sapiens, UniProt P01106); assay: split Gaussia luciferase (GLuc) assay, MYC:MAX; type: cell-based; parameters: replacing the existing Zip-gene (GCN4) with full length MYC, MYCN or MAX cDNA; expressed in transfected cells; host or cells: HeLa; conditions: 5 μM
# Experimental: A) Molecular structure of MYCMI-7. B-E) split Gaussia luciferase (GLuc) assay. MYC or MYCN and MAX Gluc constructs were co-transfected into HeLa cells together with a firefly luciferase vector. 24 hours post transfection cells were treated with compounds, and after another 17-24 hours cells were harvested and both GLuc and firefly luciferase activities were measured. The mean of three different experiments is shown. Treatment with: B) 5 μM of MYCMI-7, 64 μM 10058-F4 or 5 μM JQ1, respectively, C) 6.5 μM MYCMI-7 on cells expressing MYC:MAX GLuc vs. GCN4:GCN4 GLuc, D) 5 μM MYCMI-7 and 5 μM ellipticine. E) 5 μM MYCMI-7 for various time points. F) in situ proximity ligation assay (isPLA). […] MYC:GAL4 was used as negative control in the isPLA assay. G) Quantification of isPLA dots. (H) Co-immunoprecipitation (co-IP) of endogenous MYC and MAX proteins from MCF7 cells after treatment with 5 μM MYCMI-7 at various times. IP=immunoprecipitation; W=western blot. I) Chromatin immunoprecipitation (ChIP) of MYC at the ODC1 target gene promoter after treatment of cells with 5 μM MYCMI-7 for 6 hours. J) MYC target gene ODC1 expression after treatment with 5 μM MYCMI-7, quantified by qPCR. K) ChIP of MYC at the ODC promoter in MCF7 cells after 5 μM MYCMI-7 treatment for indicated time points. L) Recombinant MYC bHLHZip protein domain immobilized onto a CM5 chip was subjected to various concentrations of MYCMI-7 and the complex of MYCbHLHZip-MYCMI-7 was measured as response units by SPR. The sensogram was produced by subtracting the blank response.
# 0.2-0.4 μg of each GLuc-construct together with 0.05 μg pCMV-LUC (firefly luciferase) were used per transfection in 12 well plates. 24 hours later cells were treated with compound or DMSO. After another 17 hours, the cells were harvested and lyzed in passive lysis buffer (Promega) supplemented with complete protease inhibitor (Roche). After 60 min incubation at room temperature 20 μM D-luciferin was added (substrate of Firefly luciferase) and luminescence was measured in a Lumat LB9501 (Berthold) or OmegaFluostar (BMG Labtech) luminometer. Directly after, Gaussia luciferase substrate Coelenterazine (Promega) was added to a final concentration of 20 μM in a mixture with “Stop n' Glow” (Promega) and the luciferase activity was measured. The ratio between Gaussia and Firefly luciferase values were calculated and normalized to DMSO-treated control cells.
# MYC protein turnover = target: T1, MYC protein turnover (Homo sapiens, UniProt P01106); assay: cycloheximide (CHX) chase of MYC; type: cell-based; conditions: wt HCT116 cells, 5 μM
# T1 construct: Endogenous MYC was immunoprecipitated and detected by western blot analysis; endogenous in cells; host or cells: MCF7, HeLa, P493-6, HCT116 (WT, FBW7-/-, p53-/-)
# Experimental: FIG. 2: MYCMI-7 downregulates MYC and MYCN protein expresión. A) Steady state levels of MYC protein in MCF7 cells after 17 hours exposure to indicated concentrations MYCMI-7 or ellipticine B) MYC mRNA expression in MCF7 cells after treatment with MYCMI-7 for various time points. C) Steady state levels of MYC protein in different HCT116 cell lines (WT, FBW7−/− or p53−/−) after 17 hours exposure to 5 μM MYCMI-7. Endogenous MYC was immunoprecipitated and detected by western blot analysis. D) Cycloheximide (CHX) chase in HCT116 cells. Cells were subjected to 5 μM MYCMI-7 30 min prior cycloheximide addition. Cells were harvested after the indicated time points, MYC was immunoprecipitated using N262 antibody and the MYC levels analyzed using western blot (C33 antibody). E) CHX chase after MYCMI-7 treatment performed as in (D) using Fbxw7-deficient HCT116 cells. F) Stable expression of wt, T58A or S62A MYC in HO15.19 MYC−/− cells. The cells were treated with 5 μM MYCMI-7 overnight, and MYC expression was analyzed by western blot. G) Cartoon showing a linear structural representation of wt MYC and indicated mutants. […]
# For western blot equal amounts of proteins ([…]) were separated on a 4-12% SDS-PAGE gel. Proteins were transferred to Immobilion-P membrane (Millipore) and detected by immunostaining and chemoluminescence (Immobilion western HRP substrate; Millipore). […]
# in vivo = conditions: mouse, plasma, ip, 6.25 mg/kg
# Experimental: Blood and brains were collected from three to four mice per group at 0, 1, 2, 4 and 24 hours following injection of 6.25 mg/kg ToM. Plasma samples were extracted using protein precipitation. Brain samples were extracted by homogenization in acetonitrile:DMSO, 95:5 using a gentleMACS Dissociater and gentleMACS™ M Tubes. The protein in the mouse plasma samples was removed by protein precipitation with acetonitrile containing the internal standard. After protein precipitation the study samples were centrifuged, and the resulting supernatant was analyzed. The acetonitrile:DMSO from the brain sample homogenates were spiked with the internal standard and then analyzed. All samples were analyzed by first separating them by reversed phase gradient LC and subsequently detecting them using positive electrospray ionization and multiple reaction monitoring (MRM).
# First, we performed a pharmacokinetic study of the behavior of the molecule in mice.
# Chain of MYC:MAX interaction (P01106 16-454): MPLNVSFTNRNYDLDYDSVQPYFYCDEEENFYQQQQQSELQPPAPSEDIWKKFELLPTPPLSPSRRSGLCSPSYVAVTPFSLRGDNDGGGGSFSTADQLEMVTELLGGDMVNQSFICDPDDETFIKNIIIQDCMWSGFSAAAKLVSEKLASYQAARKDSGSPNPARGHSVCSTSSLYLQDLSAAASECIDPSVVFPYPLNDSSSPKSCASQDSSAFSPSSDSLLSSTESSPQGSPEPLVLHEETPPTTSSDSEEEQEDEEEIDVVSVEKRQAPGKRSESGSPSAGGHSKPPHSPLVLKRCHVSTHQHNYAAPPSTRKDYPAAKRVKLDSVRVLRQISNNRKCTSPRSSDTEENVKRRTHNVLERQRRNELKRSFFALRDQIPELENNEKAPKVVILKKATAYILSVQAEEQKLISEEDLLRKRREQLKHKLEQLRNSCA
# T1 sequence (P01106 16-454): as above
smiles,measurement,setting,value
"CCN(CC)CC[n+]1ccc2c(C)c3[nH]c4ccccc4c3c(C)c2c1 [MYCMI-7, 2-(5,11-Dimethyl-6H-25-pyrido[4,3-b]carbazol-2-yl)-N,N-diethylethanamine bromide]",time of treatment within which MYC:MAX interaction was inhibited,MYC:MAX interaction,≤ 4 h
same,inhibition of MYC:MAX GLuc interaction,MYC:MAX interaction; HeLa cells,inhibited
same,turnover rate of MYC (CHX chase),MYC protein turnover,increased
same,half-life,in vivo,1.5 h
